Reference: US11691962B2 (eXIthera Pharmaceuticals, Inc., priority 2018, dated 2023)

Experiments:
Factor XIa = Factor XIa (Homo sapiens (Human), UniProt P03951); experiment: Factor XIa enzyme inhibition assay (dose response, fluorogenic AMC substrate); assay type: biochemical; details: read-out: hFXIa IC50
Summary of the method: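 Human FXIa at 0.25 nM final with 50 μM final PyroGlu-Pro-Arg-AMC in 20 mM Hepes pH 7.4, 150 mM NaCl, 0.02% Tween 20. Two-fold serial compound dilutions; fluorescence read every minute for 30 min at 30° C. IC50 from a four-parameter Hill fit.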

[1] = Aqueous solubility in PBS by HPLC-UV/VIS; assay type: physicochemical; details: PBS pH 7.4, 2% DMSO, 24 h at room temperature; for solubility at 24 h: phosphate buffered saline, aqueous buffer, kinetic from dmso stock
Method: The following procedure was used to determine the aqueous solubility of a test compound in phosphate buffered saline (PBS-NaCl 137 mM, KCl 2.7 mM, Na2HPO4 8.1 mM, KH2PO4 1.5 mM, pH 7.4) in 96-well plate format by HPLC-UV/VIS analysis. The test compound was prepared at 200 μM in PBS from a 10 mM DMSO stock solution. The final DMSO concentration was 2%. The PBS buffer samples were mixed thoroughly followed by incubation at room temperature for 24 h. At the end of the incubation, the PBS buffer samples were centrifuged and supernatants analyzed by HPLC. The aqueous solubility (μM) of the test compound in PBS was determined by comparing the peak area of the principal peak in the calibration standard (200 μM) with the peak area of the corresponding peak in each of the PBS samples. The range of the assay was approximately 0.5 μM to 200 μM. The reference compounds used in each assay were metoprolol, rifampicin, ketoconazole, phenytoin, haloperidol, simvastatin, diethylstilbestrol, and tamoxifen ranking from fully soluble (200 μM) to poorly soluble (<1 μM).

[2] = Caco-2 cell permeability assay; assay type: in vitro ADME, human; details: human, 37° C.; for Papp A→B at 60 min, 10 μM: Caco-2, apical to basolateral; for Papp B→A at 40 min, 10 μM: Caco-2, basolateral to apical
Method: The following procedure was used to determine the ability of a test compound to cross Caco-2 cells (human intestinal epithelial cells derived from a colorectal adenocarcinoma). The cells were seeded at 1×10^5 cells/cm^2 in 96-well Multiscreen™ plates (Millipore). Permeability assays were performed with the cells at days 21-25 post-seeding. Cells are typically used for 15 consecutive passages in culture.
This assay can be performed in either the apical to basolateral (A-B) or basolateral to apical (B-A) direction. The test compound was prepared at 10 μM in HBSS-MES (pH 6.5) or HBSS-HEPES (pH 7.4) with a final DMSO concentration of 1%. The working solution was then centrifuged and the supernatant added to the donor side. The assay plate was incubated at 37° C. with gentle shaking for 60 min or 40 min for the A-B or B-A assay, respectively. Samples were aliquoted from the donor side at time zero and the end point, and from the receiver side at the end point.
Reference compounds, propranolol (highly permeable), labetalol (moderately permeable), ranitidine (poorly permeable), and colchicine (P-glycoprotein substrate) were included in each assay.
Samples are analyzed by HPLC-MS/MS using selected reaction monitoring. The HPLC system consists of a binary LC pump with autosampler, a C-18 column, and a gradient.
The apparent permeability coefficient (Papp) of the test compound (Equation 2) and its recovery (Equation 3) are calculated as follows:
[formula] wherein A is the surface area of the cell monolayer (0.11 cm^2), C is concentration of the test compound expressed as peak area, D denotes donor, and R is receiver. “0”, “mid,” and “end” denote time at zero, mid-point, and end of the incubation, respectively. Δt is the incubation time. V is the volume of the donor or receiver.
This is most likely due to non-specific binding or degradation.

Chain of Factor XIa (P03951 388-625): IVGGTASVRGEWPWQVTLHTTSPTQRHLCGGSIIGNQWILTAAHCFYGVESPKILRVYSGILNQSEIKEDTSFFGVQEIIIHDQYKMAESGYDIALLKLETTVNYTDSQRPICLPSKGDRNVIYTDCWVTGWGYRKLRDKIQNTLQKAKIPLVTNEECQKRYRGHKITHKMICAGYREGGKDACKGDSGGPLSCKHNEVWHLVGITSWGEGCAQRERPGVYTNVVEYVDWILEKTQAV
Chain of Factor XIa (P03951 19-387 partner): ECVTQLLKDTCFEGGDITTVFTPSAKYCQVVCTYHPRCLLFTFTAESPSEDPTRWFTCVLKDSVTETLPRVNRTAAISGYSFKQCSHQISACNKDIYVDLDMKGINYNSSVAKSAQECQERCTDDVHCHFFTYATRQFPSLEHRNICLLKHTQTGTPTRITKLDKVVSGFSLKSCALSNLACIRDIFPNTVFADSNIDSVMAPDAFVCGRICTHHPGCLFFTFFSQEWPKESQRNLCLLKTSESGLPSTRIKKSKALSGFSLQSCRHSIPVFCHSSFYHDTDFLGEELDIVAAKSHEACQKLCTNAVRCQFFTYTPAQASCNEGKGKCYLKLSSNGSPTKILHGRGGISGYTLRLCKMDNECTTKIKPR

IC50 (Factor XIa) [nM]	solubility at 24 h [1] [µM]	Papp A→B at 60 min, 10 μM [2] [×10⁻⁶ cm/s]	Papp B→A at 40 min, 10 μM [2] [×10⁻⁶ cm/s]	Aqueous Solubility (uM, in PBS) [1]	Molecule
< 10	> 100	< 10	31 to 50	–	CC[C@@H](NC(=O)N1C(=O)[C@H](Cc2ccnc(N)c2)[C@H]1C(=O)N(C)c1ccn(C)n1)c1ccccc1 [Compound 1-3, (2S,3R)-3-((2-aminopyridin-4-yl)methyl)-N2-(1-methyl-1H-pyrazol-3-yl)-N1-((R)-1-phenylpropyl)-N2-methyl-4-oxoazetidine-1,2-dicarboxamide]
< 10	> 100	11 to 30	11 to 30	–	CC[C@@H](NC(=O)N1C(=O)[C@H](Cc2ccnc(N)c2)[C@H]1C(=O)N(C)c1ccnn1C)c1cccc(Cl)c1 [Compound 1-4, (2S,3R)-3-((2-aminopyridin-4-yl)methyl)-N2-(1-methyl-1H-pyrazol-5-yl)-N1-((R)-1-(3-chlorophenyl)propyl)-N2-methyl-4-oxoazetidine-1,2-dicarboxamide]
< 10	> 100	< 10	31 to 50	–	CC[C@@H](NC(=O)N1C(=O)[C@H](Cc2ccnc(N)c2)[C@H]1C(=O)N(C)c1cscn1)c1ccccc1 [Compound 1-8, (2S,3R)-3-((2-aminopyridin-4-yl)methyl)-N2-(4-thiazolyl)-N1-((R)-1-phenylpropyl)-N2-methyl-4-oxoazetidine-1,2-dicarboxamide]
< 10	> 100	11 to 30	11 to 30	–	CC[C@@H](NC(=O)N1C(=O)[C@H](Cc2ccnc(N)c2)[C@H]1C(=O)N(C)c1cccs1)c1ccccc1 [Compound 1-10, (2S,3R)-3-((2-aminopyridin-4-yl)methyl)-N2-(thiophen-2-yl)-N1-((R)-1-phenylpropyl)-N2-methyl-4-oxoazetidine-1,2-dicarboxamide]
< 10	> 100	< 10	11 to 30	–	CC[C@@H](NC(=O)N1C(=O)[C@H](Cc2ccnc(N)c2)[C@H]1C(=O)N(C)c1nccn1C)c1ccccc1 [Compound 1-13, (2S,3R)-3-((2-aminopyridin-4-yl)methyl)-N2-(1-methyl-1H-imidazol-2-yl)-N1-((R)-1-phenylpropyl)-N2-methyl-4-oxoazetidine-1,2-dicarboxamide]
10 to 100	> 100	< 10	11 to 30	–	CC[C@@H](NC(=O)N1C(=O)[C@H](Cc2cc(C)nc(N)c2)[C@H]1C(=O)N(C)c1cnn(C)c1)c1cccc(Cl)c1 [Compound 1-15, (2S,3R)-3-((2-amino-6-methylpyridin-4-yl)methyl)-N2-(1-methyl-1H-pyrazol-4-yl)-N1-((R)-1-(3-chlorophenyl)propyl)-N2-methyl-4-oxoazetidine-1,2-dicarboxamide]
< 10	> 100	11 to 30	11 to 30	–	CC[C@@H](NC(=O)N1C(=O)[C@H](Cc2ccnc(N)c2)[C@H]1C(=O)N(C)c1cscn1)c1cccc(Cl)c1 [Compound 1-17, (2S,3R)-3-((2-aminopyridin-4-yl)methyl)-N2-(4-thiazolyl)-N1-((R)-1-(3-chlorophenyl)propyl)-N2-methyl-4-oxoazetidine-1,2-dicarboxamide]
10 to 100	> 100	< 10	< 10	–	CC[C@@H](NC(=O)N1C(=O)[C@H](Cc2ccnc(N)c2)[C@H]1C(=O)N(C)c1cnn(C)c1)c1ccc(C)nc1 [Compound 1-18, (2S,3R)-3-((2-aminopyridin-4-yl)methyl)-N2-(1-methyl-1H-pyrazol-4-yl)-N1-((R)-1-(6-methylpyridin-3-yl)propyl)-N2-methyl-4-oxoazetidine-1,2-dicarboxamide]
< 10	> 100	< 10	11 to 30	–	CC[C@@H](NC(=O)N1C(=O)[C@H](Cc2cc(C)nc(N)c2)[C@H]1C(=O)N(C)c1ccn(C)n1)c1cccc(C)c1 [Compound 1-22, (2S,3R)-3-((2-amino-6-methylpyridin-4-yl)methyl)-N2-(1-methyl-1H-pyrazol-3-yl)-N1-((R)-1-(3-methylphenyl)propyl)-N2-methyl-4-oxoazetidine-1,2-dicarboxamide]
< 10	> 100	11 to 30	11 to 30	–	CN(C(=O)[C@@H]1[C@@H](Cc2ccnc(N)c2)C(=O)N1C(=O)N[C@@H](C1CCCCC1)C(F)(F)F)c1ccn(C)n1 [Compound 1-32, (2S,3R)-3-((2-aminopyridin-4-yl)methyl)-N2-(1-methyl-1H-pyrazol-3-yl)-N1-((S)-1-cyclohexyl-2,2,2-trifluoroethyl)-N2-methyl-4-oxoazetidine-1,2-dicarboxamide]
< 10	> 100	< 10	31 to 50	–	CC[C@@H](NC(=O)N1C(=O)[C@H](Cc2ccnc(N)c2)[C@H]1C(=O)N(C)c1nccn1C)c1cccc(Cl)c1 [Compound 1-35, (2S,3R)-3-((2-aminopyridin-4-yl)methyl)-N2-(1-methyl-1H-imidazol-2-yl)-N1-((R)-1-(3-chlorophenyl)propyl)-N2-methyl-4-oxoazetidine-1,2-dicarboxamide]
10 to 100	> 100	< 10	31 to 50	–	CC[C@@H](NC(=O)N1C(=O)[C@H](Cc2ccnc(NC)c2)[C@H]1C(=O)N(C)c1nccn1C)c1cccc(Cl)c1 [Compound 1-41, (2S,3R)-3-((2-methylaminopyridin-4-yl)methyl)-N2-(1-methyl-1H-imidazol-2-yl)-N1-((R)-1-(3-chlorophenyl)propyl)-N2-methyl-4-oxoazetidine-1,2-dicarboxamide]
< 10	> 100	< 10	11 to 30	–	CC[C@@H](NC(=O)N1C(=O)[C@H](Cc2cc(C)nc(N)c2)[C@H]1C(=O)N(C)c1nccn1C)c1cccc(Cl)c1 [Compound 1-43, (2S,3R)-3-((2-amino-6-methylpyridin-4-yl)methyl)-N2-(1-methyl-1H-imidazol-2-yl)-N1-((R)-1-(3-chlorophenyl)propyl)-N2-methyl-4-oxoazetidine-1,2-dicarboxamide]
10 to 100	> 100	11 to 30	31 to 50	–	CC[C@@H](NC(=O)N1C(=O)[C@H](Cc2cc(C)nc(NC)c2)[C@H]1C(=O)N(C)c1nccn1C)c1ccccc1 [Compound 1-45, (2S,3R)-3-((2-methylamino-6-methylpyridin-4-yl)methyl)-N2-(1-methyl-1H-imidazol-2-yl)-N1-((R)-1-phenylpropyl)-N2-methyl-4-oxoazetidine-1,2-dicarboxamide]
< 10	> 100	11 to 30	11 to 30	–	CC[C@@H](NC(=O)N1C(=O)[C@H](Cc2cc(C)nc(NC)c2)[C@H]1C(=O)N(C)c1nccn1C)c1cccc(Cl)c1 [Compound 1-46, (2S,3R)-3-((2-methylamino-6-methylpyridin-4-yl)methyl)-N2-(1-methyl-1H-imidazol-2-yl)-N1-((R)-1-(3-chlorophenyl)propyl)-N2-methyl-4-oxoazetidine-1,2-dicarboxamide]
< 10	–	–	–	W (“W” indicates > 100 μM)	(2S,3R)-3-((2-amino-6-methylpyridin-4-yl)methyl)-N2-(1-methyl-1H-imidazol-2-yl)-N1-((R)-1-(3-fluorophenyl)propyl)-N2-methyl-4-oxoazetidine-1,2-dicarboxamide [Compound 1-120]
